Laboratory results: patent US7358268B2, “Imidazole derivatives as factor Xa inhibitors” (Sanofi-Aventis Deutschland GmbH, priority 2002, dated 2008)

These compounds were tested against T1, human factor Xa (Homo sapiens, UniProt P00742) (assay: Factor Xa assay (chromogenic, purified enzyme)). Settings: inhibition constant for factor Xa; chromogenic substrate S-2765 140 μM, enzyme 0.5 nM, 25° C., pH 7.8; Ki calculated from IC50 (Ki=IC50/{1+(substrate concentration/Km)}); read-out: Ki(FXa).
T1 construct: 25 μl human factor Xa (Enzyme Research Laboratories, Inc; South Bend, Ind.) in TBS-PEG; purchased Enzyme Research Laboratories, Inc; South Bend, Ind
Assay type: biochemical
Procedure: The ability of the compounds of the formula I to inhibit factor Xa or factor VIIa or other enzymes like thrombin, plasmin, or trypsin can be assessed by determining the concentration of the compound of the formula I that inhibits enzyme activity by 50%, i. e. the IC50 value, which was related to the inhibition constant Ki. Purified enzymes were used in chromogenic assays. The concentration of inhibitor that causes a 50% decrease in the rate of substrate hydrolysis was determined by linear regression after plotting the relative rates of hydrolysis (compared to the uninhibited control) versus the log of the concentration of the compound of formula I. For calculating the inhibition constant Ki, the IC50 value was corrected for competition with substrate using the formula Ki=IC50/{1+(substrate concentration/Km)} wherein Km is the Michaelis-Menten constant (Chen and Prusoff, Biochem. Pharmacol. 22 (1973), 3099-3108; I. H. Segal, Enzyme Kinetics, 1975, John Wiley & Sons, New York, 100-125; which were incorporated herein by reference). a) Factor Xa Assay
In the assay for determining the inhibition of factor Xa activity TBS-PEG buffer (50 mM Tris-HCl, pH 7.8, 200 mM NaCl, 0.05% (w/v) PEG-8000, 0.02% (w/v) NaN3) was used. The IC50 was determined by combining in appropriate wells of a Costar half-area microtiter plate 25 μl human factor Xa (Enzyme Research Laboratories, Inc.; South Bend, Ind.) in TBS-PEG; 40 μl 10% (v/v) DMSO in TBS-PEG (uninhibited control) or various concentrations of the compound to be tested diluted in 10% (v/v) DMSO in TBS-PEG; and substrate S-2765 (N(α)-benzyloxycarbonyl-D-Arg-Gly-L-Arg-p-nitroanilide; Kabi Pharmacia, Inc.; Franklin, Ohio) in TBS-PEG.
The assay was performed by pre-incubating the compound of formula I plus enzyme for 10 min. Then the assay was initiated by adding substrate to obtain a final volume of 100 μl. The initial velocity of chromogenic substrate hydrolysis was measured by the change in absorbance at 405 nm using a Bio-tek Instruments kinetic plate reader (Ceres UV900HDi) at 25° C. during the linear portion of the time course (usually 1.5 min after addition of substrate). The enzyme concentration was 0.5 nM and substrate concentration was 140 μM.

T1 sequence (P00742 235-488 limits assumed): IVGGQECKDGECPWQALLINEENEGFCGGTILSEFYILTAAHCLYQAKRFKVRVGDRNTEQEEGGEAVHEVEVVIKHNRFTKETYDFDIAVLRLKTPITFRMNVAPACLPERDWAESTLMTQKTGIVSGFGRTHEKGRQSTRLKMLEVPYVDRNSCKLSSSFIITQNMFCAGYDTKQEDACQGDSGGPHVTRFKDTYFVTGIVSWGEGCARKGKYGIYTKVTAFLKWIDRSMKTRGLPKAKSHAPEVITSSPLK
T1 sequence (P00742 41-179 partner limits assumed): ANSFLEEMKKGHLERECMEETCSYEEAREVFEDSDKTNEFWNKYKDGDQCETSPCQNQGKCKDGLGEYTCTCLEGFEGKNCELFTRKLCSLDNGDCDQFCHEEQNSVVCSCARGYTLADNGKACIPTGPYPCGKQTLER

SMILES | Ki [nM]
COCc1ncc(C(=O)NC2CCN(C(C)C)CC2)n1CC(=O)Nc1ccc(Cl)cc1 [Example 30, 3-[(4-Chloro-phenylcarbamoyl)-methyl]-2-methoxymethyl-3H-imidazole-4-carboxylic acid (1-isopropyl-piperidin-4-yl)-amide] | 35
Cc1nc(Br)n(Cc2cc(-c3ccc(Cl)s3)on2)c1C(=O)NC1CCN(C(C)C)CC1 [Example 26, 2-Bromo-3-[5-(5-chloro-thiophen-2-yl)-isoxazol-3-ylmethyl]-5-methyl-3H-imidazole-4-carboxylic acid (1-isopropyl-piperidin-4-yl)-amide] | 3
CC(C)N1CCC(NC(=O)c2nc(C(N)=O)cn2Cc2cc(-c3ccc(Cl)s3)on2)CC1 [Example 41, 1-[5-(5-Chloro-thiophen-2-yl)-isoxazol-3-ylmethyl]-1H-imidazole-2,4-dicarboxylic acid 4-amide 2-[(1-isopropyl-piperidin-4-yl)-amide]] | 46
Cc1nc(C(N)=O)n(Cc2cc(-c3ccc(Cl)s3)on2)c1C(=O)NC1CCN(C(C)C)CC1 [Example 24, 3-[5-(5-Chloro-thiophen-2-yl)-isoxazol-3-ylmethyl]-5-methyl-3H-imidazole-2,4-dicarboxylic acid 2-amide 4-[(1-isopropyl-piperidin-4-yl)-amide]] | 22
CCc1nc(C(=O)NC2CCN(C(C)C)CC2)c(C)n1Cc1cc(-c2ccc(Cl)s2)on1 [Example 6, 1-[5-(5-Chloro-thiophen-2-yl)-isoxazol-3-ylmethyl]-2-ethyl-5-methyl-1H-imidazole-4-carboxylic acid (1-isopropyl-piperidin-4-yl)-amide] | 530
CCOC(=O)c1ncc(C(=O)NC2CCN(C(C)C)CC2)n1Cc1cc(-c2ccc(Cl)s2)on1 [Example 37, 1-[5-(5-Chloro-thiophen-2-yl)-isoxazol-3-ylmethyl]-5-(1-isopropyl-piperidin-4-ylcarbamoyl)-1H-imidazole-2-carboxylic acid ethyl ester] | 8
CC(C)N1CCC(NC(=O)c2cnc(-c3c(F)cccc3F)n2Cc2cc(-c3ccc(Cl)s3)on2)CC1 [Example 12, 3-[5-(5-Chloro-thiophen-2-yl)-isoxazol-3-ylmethyl]-2-(2,6-difluoro-phenyl)-3H-imidazole-4-carboxylic acid (1-isopropyl-piperidin-4-yl)-amide] | 18
CC(C)N1CCC(NC(=O)c2cnc(-c3cccnc3)n2Cc2cc(-c3ccc(Cl)s3)on2)CC1 [Example 20, 3-[5-(5-Chloro-thiophen-2-yl)-isoxazol-3-ylmethyl]-2-pyridin-3-yl-3H-imidazole-4-carboxylic acid (1-isopropyl-piperidin-4-yl)-amide] | 358
COC(=O)c1cn(Cc2cc(-c3ccc(Cl)s3)on2)c(C(=O)NC2CCN(C(C)C)CC2)n1 [Example 40, 1-[5-(5-Chloro-thiophen-2-yl)-isoxazol-3-ylmethyl]-2-(1-isopropyl-piperidin-4-ylcarbamoyl)-1H-imidazole-4-carboxylic acid methyl ester] | 20
CC(C)c1ncc(C(=O)NC2CCN(C(C)C)CC2)n1Cc1cc(-c2ccc(Cl)s2)on1 [Example 16, 3-[5-(5-Chloro-thiophen-2-yl)-isoxazol-3-ylmethyl]-2-isopropyl-3H-imidazole-4-carboxylic acid (1-isopropyl-piperidin-4-yl)-amide] | 254
CC(C)N1CCC(NC(=O)c2nccn2Cc2cc(-c3ccc(Cl)s3)on2)CC1 [Example 60, 1-[5-(5-Chloro-thiophen-2-yl)-isoxazol-3-ylmethyl]-1H-imidazole-2-carboxylic acid (1-isopropyl-piperidin-4-yl)-amide] | 49
CC(C)N1CCC(NC(=O)c2nc(C(=O)O)cn2Cc2cc(-c3ccc(Cl)s3)on2)CC1 [Example 39, 1-[5-(5-Chloro-thiophen-2-yl)-isoxazol-3-ylmethyl]-2-(1-isopropyl-piperidin-4-ylcarbamoyl)-1H-imidazole-4-carboxylic acid] | 117
CC(C)N1CCC(NC(=O)c2c(Cl)nc(-c3ccccc3)n2CC(=O)Nc2ccc(Cl)cn2)CC1 [Example 33, 5-Chloro-3-[(5-chloro-pyridin-2-ylcarbamoyl)-methyl]-2-phenyl-3H-imidazole-4-carboxylic acid (1-isopropyl-piperidin-4-yl)-amide] | 103
CCS(=O)(=O)c1ncc(C(=O)NC2CCN(C(C)C)CC2)n1Cc1cc(-c2ccc(Cl)s2)on1 [Example 23, 3-[5-(5-Chloro-thiophen-2-yl)-isoxazol-3-ylmethyl]-2-ethanesulfonyl-3H-imidazole-4-carboxylic acid (1-isopropyl-piperidin-4-yl)-amide] | 6
CC(C)N1CCC(NC(=O)c2cnc(-c3c(Cl)cccc3Cl)n2Cc2cc(-c3ccc(Cl)s3)on2)CC1 [Example 15, 3-[5-(5-Chloro-thiophen-2-yl)-isoxazol-3-ylmethyl]-2-(2,6-dichloro-phenyl)-3H-imidazole-4-carboxylic acid (1-isopropyl-piperidin-4-yl)-amide] | 56
COCc1ncc(C(=O)NC2CCN(C(C)C)CC2)n1Cc1cc(-c2ccc(Cl)s2)on1 [Example 9, 3-[5-(5-Chloro-thiophen-2-yl)-isoxazol-3-ylmethyl]-2-methoxymethyl-3H-imidazole-4-carboxylic acid (1-isopropyl-piperidin-4-yl)-amide] | 86
CC(C)N1CCC(NC(=O)c2nc(C(=O)N(C)CCO)cn2Cc2cc(-c3ccc(Cl)s3)on2)CC1 [Example 42] | 126
CC(C)N1CCC(NC(=O)c2nc(C(=O)N(C)C)cn2Cc2cc(-c3ccc(Cl)s3)on2)CC1 [Example 44, 1-[5-(5-Chloro-thiophen-2-yl)-isoxazol-3-ylmethyl]-1H-imidazole-2,4-dicarboxylic acid 4-dimethylamide 2-[(1-isopropyl-piperidin-4-yl)-amide]] | 136
COCCc1ncc(C(=O)NC2CCN(C(C)C)CC2)n1Cc1cc(-c2ccc(Cl)s2)on1 [Example 14, 3-[5-(5-Chloro-thiophen-2-yl)-isoxazol-3-ylmethyl]-2-(2-methoxy-ethyl)-3H-imidazole-4-carboxylic acid (1-isopropyl-piperidin-4-yl)-amide] | 401
COC1CN(C(=O)c2cn(Cc3cc(-c4ccc(Cl)s4)on3)c(C(=O)NC3CCN(C(C)C)CC3)n2)C1 [Example 48, 1-[5-(5-Chloro-thiophen-2-yl)-isoxazol-3-ylmethyl]-4-(3-methoxy-azetidine-1-carbonyl)-1H-imidazole-2-carboxylic acid (1-isopropyl-piperidin-4-yl)-amide] | 91
CC(C)N1CCC(NC(=O)c2nc(C(=O)OCC3CC3)cn2Cc2cc(-c3ccc(Cl)s3)on2)CC1 [Example 45, 1-[5-(5-Chloro-thiophen-2-yl)-isoxazol-3-ylmethyl]-2-(1-isopropyl-piperidin-4-ylcarbamoyl)-1H-imidazole-4-carboxylic acid cyclopropylmethyl ester] | 57
CC(C)N1CCC(NC(=O)c2nc(C(=O)OC(C)(C)C)cn2Cc2cc(-c3ccc(Cl)s3)on2)CC1 [Example 38, 1-[5-(5-Chloro-thiophen-2-yl)-isoxazol-3-ylmethyl]-2-(1-isopropyl-piperidin-4-ylcarbamoyl)-1H-imidazole-4-carboxylic acid tert-butyl ester] | 174
